Values belong to the molecule of their own block, whether it stands above or below them.
How the values were obtained:
rat TRPV1 [1] = molecular target: T1, rat TRPV1 (Rattus norvegicus, UniProt O35433); assay: Ca^2+ imaging (Fura-2) in HEK293 cells stably expressing rat TRPV1; type: cell-based; conditions: for intracellular Ca^2+ level on extracellular application: ratiometric fura-2 imaging
T1 construct: expressed in transfected cells

rat TRPV1 [2] = molecular target: T1, rat TRPV1; assay: YO-PRO-1 uptake (imaging / plate-reader) in TRPV1-expressing cells; type: cell-based; conditions: for fold decrease of t1/2 to maximal YO-PRO-1 fluorescence, pretreated vs not pretreated cells: 50 μM agonist pre-incubated two hours then removed, 5 μM YO-PRO-1, n=3; for agonist-induced YO-PRO-1 uptake: extracellular application
Method: Human embryonic kidney (HEK) 293 cells stably expressing rat TRPV1 were grown in DMEM/F12 with 10% newborn calf serum and antibiotics and cultured in a 5% CO2 aerated incubator at 37° C. Cells were trypsinized and plated on 96-well plates or matrix-coated coverslips for Ca^2+ imaging, YO-PRO-1 imaging, plate-reader assays, or electrophysiological recording. Calcium imaging, fluorescent dye uptake assays, and electrophysiological experiments were all performed 24-72 hours after plating.
Cells were plated in 96-well plates to near confluence. Images were acquired at a rate of 1 frame per 15 sec. The fields were illuminated for 2 sec for each frame. The fluorescent intensity was measured at the emission wavelength of 510/20 nm. 2× concentration of agonists and 10 μM YO-PRO-1 were mixed and added at equal volume to a bath solution with the same electrolyte composition except omitting CaCl2.
TRPV1 cell lines were passed into 96-well plate, grown to confluence, and assayed in a physiological Ringer solution. 50 μl of solution as used for YO-PRO-1 imaging with agonists of various concentrations was added to each well. Fluorescence intensity (485-nm excitation, 516-nm emission) was monitored by Multi-detection Microplate Reader (BioTek). For normalization, cells were fixed by 5% PFA at the end of experiments and counted total fluorescence from each well after adding digitonin solution (Assay Designs) with 5 μM YO-PRO-1.

rat TRPV1 [3] = molecular target: T1, rat TRPV1; assay: Electrophysiology of membrane patches from HEK cells expressing rat TRPV1; type: cell-based
[4] = test system: voltage gated Na+ channels; assay: Neuronal Na+ currents after cap-ET and/or QX-314 loading, whole-cell recording; conditions: PAO or cap-ET alone (10 μM), then 5 mM QX-314
rTRPV1 Y511A = molecular target: T2, rTRPV1 Y511A (Rattus norvegicus, UniProt O35433, Y511A); assay: YO-PRO-1 entry in HEK cells expressing rTRPV1 Y511A; type: cell-based
T2 construct: expressed in transfected cells; host or cells: HEK cells
T2 sequence (O35433 whole entry Y511A): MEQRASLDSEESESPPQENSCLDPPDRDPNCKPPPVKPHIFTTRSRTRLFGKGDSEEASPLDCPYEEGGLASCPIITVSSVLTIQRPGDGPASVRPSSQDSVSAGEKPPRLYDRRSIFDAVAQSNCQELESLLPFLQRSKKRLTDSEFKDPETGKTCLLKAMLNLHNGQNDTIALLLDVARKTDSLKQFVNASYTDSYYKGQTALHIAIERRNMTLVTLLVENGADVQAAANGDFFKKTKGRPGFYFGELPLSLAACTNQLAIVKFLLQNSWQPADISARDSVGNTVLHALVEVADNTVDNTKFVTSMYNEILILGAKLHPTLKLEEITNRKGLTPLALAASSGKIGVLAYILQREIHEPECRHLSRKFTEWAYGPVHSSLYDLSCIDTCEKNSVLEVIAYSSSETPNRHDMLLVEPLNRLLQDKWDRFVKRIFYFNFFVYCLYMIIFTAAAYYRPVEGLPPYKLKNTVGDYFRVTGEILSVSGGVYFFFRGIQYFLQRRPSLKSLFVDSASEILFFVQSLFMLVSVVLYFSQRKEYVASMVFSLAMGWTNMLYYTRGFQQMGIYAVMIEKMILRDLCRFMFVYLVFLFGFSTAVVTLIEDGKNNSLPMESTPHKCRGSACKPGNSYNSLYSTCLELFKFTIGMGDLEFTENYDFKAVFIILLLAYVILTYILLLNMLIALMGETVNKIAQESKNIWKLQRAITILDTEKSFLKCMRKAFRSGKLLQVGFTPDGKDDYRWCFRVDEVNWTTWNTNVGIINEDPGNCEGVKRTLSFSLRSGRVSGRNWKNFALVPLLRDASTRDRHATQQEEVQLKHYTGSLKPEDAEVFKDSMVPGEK

T1 sequence (O35433 whole entry): as the sequence (O35433 whole entry Y511A) above, with A511Y counted along it

SMILES: CC[N+](CC)(CC)CCOc1ccc(CNC(=O)CCCC/C=C/C(C)C)cc1OC [cap-ETEA, capsaicin O-tetra-ethylammonium acetate]
intracellular Ca^2+ level on extracellular application (rat TRPV1 [1]): effectively raised intracellular Ca^2+ levels

effect on capsaicin-mediated YO-PRO-1 entry (rat TRPV1 [2]; 10 μM): effectively suppressed YO-PRO-1 entry
SMILES: N.N.N.N.N.N.N.N.N.N.N.N.N.N.[Cl-].[Cl-].[Cl-].[Cl-].[Cl-].[Cl-].[O-2].[O-2].[Ru+3].[Ru+3].[Ru+4] [RR, ruthenium red]

SMILES: CCCC(=O)O[C@@H]1[C@@H](C)[C@@]2(O)[C@@H](C=C(CO)C[C@]3(O)C(=O)C(C)=C[C@@H]23)[C@@H]2C(C)(C)[C@]12OC(=O)CCC [PDBu]
effect on potency of capsaicin or cap-ET for YO-PRO-1 uptake (rat TRPV1 [2]): increased the potency

block of capsaicin-induced TRPV1 currents (rat TRPV1 [3]; 100 μM cap-ET co-applied with 30 μM capsaicin, from outside or inside): strong voltage-dependent block
electric current induced on cytoplasmic side of inside-out patch (rat TRPV1 [3]; 100 μM cap-ET, compared to 30 μM capsaicin): barely detectable electric current
fold decrease of t1/2 to maximal YO-PRO-1 fluorescence, pretreated vs not pretreated cells (rat TRPV1 [2]): 5.37±0.99 fold
agonist-induced YO-PRO-1 uptake (rat TRPV1 [2]): induced YO-PRO-1 uptake
hydrophilicity relative to capsaicin, based on water/octanol partitioning: over 300 fold
SMILES: COc1cc(CNC(=O)CCCC/C=C/C(C)C)ccc1OCC[N+](C)(C)C [cap-ET, capsaicin O-ethyl (trimethyl-ammonium) acetate]
rank of potency and efficacy in Ca^2+ signals among the three charged capsaicinoids (rat TRPV1 [1]): most potent and efficacious among the three
intracellular Ca^2+ level on extracellular application (rat TRPV1 [1]): effectively raised intracellular Ca^2+ levels
Icap-ET/Icap (ionic current relative to capsaicin), PAO-sensitized TRPV1 (rat TRPV1 [3]): 3.0±0.9%
electric current induced, TRPV1 sensitized by 10 μM PAO (rat TRPV1 [3]; 100 μM cap-ET): recordable but small current
Na+ current density after QX-314, agent alone [4]: comparable to cells not exposed to QX-314

intracellular Ca^2+ level on extracellular application (rat TRPV1 [1]): large intracellular Ca^2+ rise
fold decrease of t1/2 to maximal YO-PRO-1 fluorescence, pretreated vs not pretreated cells (rat TRPV1 [2]): 1.14±0.04 fold
agonist-induced YO-PRO-1 uptake (rat TRPV1 [2]): induced YO-PRO-1 uptake
YO-PRO-1 transport via rTRPV1 Y511A mutant (rTRPV1 Y511A): failed to elicit YO-PRO-1 transport
SMILES: COc1cc(CNC(=O)CCCC/C=C/C(C)C)ccc1O [capsaicin]

block of TRPV1 currents evoked by 10 μM capsaicin (rat TRPV1 [3]; 5 μM, inside-out patch): reversibly blocked
SMILES: C[n+]1c(C=C2C=CN(CCC[N+](C)(C)C)c3ccccc32)oc2ccccc21 [YO-PRO-1, reference compound]

Reference: patent US20130102680A1, “METHODS FOR SELECTIVE SILENCING OF SENSORY NEURONS” (CORNELL UNIVERSITY, priority 2011, published 2013)
